Measured values published in article PMC9221442, “Design, Synthesis and Characterization of [G10a]-Temporin SHa Dendrimers as Dual Inhibitors of Cancer and Pathogenic Microbes” (Biomolecules, 2022).
Values after ≈ are worked out from the molar mass of the structure shown. “Also recorded” adds a separate entry of the source. Where two headings read alike, the source gives them in different places. Where a SMILES comes first, the peptide text is derived from it.

Experiments:
[1] = tested on: methicillin-resistant Staphylococcus aureus (MRSA); set-up: method as in PMID 35092568; settings: cited from earlier work
[2] = Stability study at different pH; settings: pH 2 to pH 14
Method: The stability of dendrimers at different pH values and temperatures was also determined. For this, a 510 model digital pH meter (Oakton Eutech) with working electrode of glass material and a Ag/AgCl as reference electrode was used for the pH record. […] Similarly, stability of monomer [G10a]-SHa and its three dendrimers was checked by heating the peptide dendrimers on different temperature ranges, i.e., room temperature, 35 °C, 40 °C, 50 °C and 60 °C.

[3] = cited from earlier work
H. pylori = tested on: H. pylori; set-up: method as in PMID 31614561; settings: cited from earlier work
[4] = tested on: Klebsiella pneumoniae (DSM 26371); format: cell-based
Method: (§1) Experiments were performed in triplicate (n = 3).

[5] = tested on: Bacillus subtilis (ATCC 6633); format: cell-based
Method: as §1

[6] = tested on: Pseudomonas aeruginosa (ATCC 9027); format: cell-based
Method: as §1

[7] = tested on: Enterococcus faecium (DSM 20477); format: cell-based; settings: DSM 20477
Method: as §1

[8] = tested on: Enterococcus faecalis (DSM 2570); format: cell-based
Method: as §1

[9] = tested on: Escherichia coli (ATCC 8739); format: cell-based
Method: as §1

[10] = tested on: Helicobacter pylori (ATCC 43504); format: cell-based
Method: as §1

[11] = tested on: Staphylococcus aureus (ATCC 6538); format: cell-based
Method: as §1

[12] = tested on: Enterobacter cloacae (DSM 30054); format: cell-based
Method: as §1

[13] = tested on: Acinetobacter baumannii (DSM 30007); format: cell-based
Method: as §1

[14] = Stability study at different temperatures (absorbance spectrum); settings: room temperature, 35 °C, 40 °C, 50 °C and 60 °C
Method: The stability of dendrimers at different pH values and temperatures was also determined. For this, a 510 model digital pH meter (Oakton Eutech) with working electrode of glass material and a Ag/AgCl as reference electrode was used for the pH record. Dilute solutions of HCl and NaOH were added to adjust the pH of the solution from 2 to 12. Similarly, stability of monomer [G10a]-SHa and its three dendrimers was checked by heating the peptide dendrimers on different temperature ranges, i.e., room temperature, 35 °C, 40 °C, 50 °C and 60 °C.

[15] = Dynamic light scattering (zetasizer); format: physicochemical
Method: The dendrimeric solutions of peptides were transferred into transparent cuvette with care to remove bubble formation. The sample was then transferred to the cell holder and study was performed at 90° scattering angle at room temperature. The standard viscosity and refractive index were kept constant and kept at 1.0, 1.33 and 80.4 mPa, respectively.

human red blood cells = test: Hemolysis assay; format: cell-based
Method: (§2) The ability of dendrimers and peptides to cause hemolysis was evaluated using human whole red blood cells. Briefly, fresh human erythrocytes (obtained from Divbio Science Europe, NL) were washed 3 times by centrifugation at 800× g for 5 min with sterile phosphate buffer saline (PBS, pH 7.4). The washed erythrocytes were resuspended in complete culture media (DMEM supplemented with 10% FBS) to a final concentration of 8%. Human erythrocytes were then added into sterile 96-well microplates (150 µL per well) and were exposed to increasing concentrations of peptides or dendrimers. After 1 h incubation at 37 °C, plates were centrifuged at 800× g for 5 min. Then, 100 µL of supernatant were carefully transferred to a new 96-well microplate and absorbance was measured at 450 nm using microplate reader. Triton-X100 at 0.1% (v/v) was used as positive control giving 100% hemolysis. The HC50 values of peptides and dendrimers (i.e., the concentration of compound causing 50% of hemolysis) were calculated using GraphPad® Prism 7 software.

Hemolysis assay = format: cell-based, human; settings: human
Method: as §2

[16] = tested on: ovarian cancer cells A2780; format: cell-based, human; settings: 48 h
Method: (§3) The antiproliferative effect of the peptides was determined by using human cells, as previously described. Human cancer cells used in this experiment were ovarian cancer cells A2780 (obtained from ECACC), breast cancer cells MCF-7 (obtained from ATCC), liver cancer cells HepG2 (obtained from ATCC), lung cancer cells A549 (obtained from ATCC), pancreatic cancer cells MiaPaCa (obtained from ATCC), prostate cancer cells PC-3 (obtained from ATCC), and skin cancer cells MNT-1 (generous gift from the National Institute of Health (NIH). Normal human cells used were human lung fibroblasts IMR-90 (obtained from ATCC). All cells were cultured in DMEM which was supplemented with 10% fetal bovine serum (FBS), 1% L-glutamine, and 1% antibiotics (all from Invitrogen) at 37 °C in 5% CO2 incubator. For cytotoxicity assay, cells were maintained in 25 cm^2 flasks. Cells were separated from flasks using trypsin-EDTA solution (from Thermofisher) and counted using Malassez chamber and diluted in culture medium before seeding into 96-well cell-culture plates (Greiner bio-one, Paris, France) at approximately 3000 cells/well. Cells were then treated with increasing concentration of peptides diluted in culture medium (1:2 serial dilution, from 100 µM to 0 µM). After 48 h, medium was aspirated and number of viable cells was colorimetrically determined using resazurin-based assay following manufacturer’s instructions. The fluorescence intensity was measured using microplate reader (Biotek, Santa Clara, CA, USA, Synergy Mx) with an excitation wavelength of 530 nm and an emission wavelength of 590 nm. The fluorescence values were normalized by the controls (untreated cells) and expressed as percent of proliferation. The IC50 values of peptides (i.e., the concentrations causing 50% inhibition of cell proliferation) were determined using GraphPad® Prism 7 software.

[17] = tested on: breast cancer cells MCF-7; format: cell-based, human; settings: 48 h
Method: as §3

lung cancer cells A549 = format: cell-based, human; settings: 48 h
Method: as §3

skin cancer cells MNT-1 = format: cell-based, human; settings: 48 h
Method: as §3

liver cancer cells HepG2 = format: cell-based, human; settings: 48 h
Method: as §3

[18] = tested on: prostate cancer cells PC-3; format: cell-based, human; settings: 48 h
Method: as §3

[19] = tested on: pancreatic cancer cells MiaPaCa; format: cell-based, human; settings: 48 h
Method: as §3

[20] = tested on: human lung fibroblasts IMR-90; format: cell-based; settings: 48 h
Method: as §3

human cancer cells = format: cell-based; settings: 48 h
Method: as §3

CC[C@H](C)[C@H](NC(=O)CNC(=O)[C@H](CO)NC(=O)[C@H](CC(C)C)NC(=O)[C@@H](N)Cc1ccccc1)C(=O)N[C@H](C(=O)NCC(=O)N[C@@H](CCSC)C(=O)N[C@@H](CC(C)C)C(=O)N[C@H](C)C(=O)N[C@@H](CCCCN)C(=O)N[C@@H](CC(C)C)C(=O)N[C@@H](Cc1ccccc1)C(N)=O)C(C)C [[G10a]-SHa, H-Phe^1-Leu^2-Ser^3-Gly^4-Ile^5-Val^6-Gly^7-Met^8-Leu^9-D-Ala^10-Lys^11-Leu^12-Phe^13-NH2] (HELM PEPTIDE1{F.L.S.G.I.V.G.M.L.[dA].K.L.F.[am]}$$$$V2.0)
antibacterial activity (in words) [1]: active
stability at different pH [2]: significantly stable at pH values up to 10 and unstable at high pH values of 12 and 14
serum stability (in words) [3]: good serum stability
antibacterial activity (in words) (H. pylori): active
minimal inhibitory concentration (MIC) ([4]; DSM 26371): 100 µM (≈ 139 µg/mL)
minimal inhibitory concentration (MIC) ([4]; K. pneumoniae (DSM 26371), 18–24 h): 100 µM (≈ 139 µg/mL)
minimal inhibitory concentration (MIC) ([5]; ATCC 6633): 3.12 µM (≈ 4.35 µg/mL)
minimal inhibitory concentration (MIC) ([5]; B. subtilis (ATCC 6633), 18–24 h, aerobic): 3.12 µM (≈ 4.35 µg/mL)
minimal inhibitory concentration (MIC) ([6]; ATCC 9027): >100 µM
minimal inhibitory concentration (MIC) ([6]; P. aeruginosa (ATCC 9027), 18–24 h, aerobic): > 100 µM
minimal inhibitory concentration (MIC) [7]: >100 µM
minimal inhibitory concentration (MIC) ([8]; DSM 2570): 25 µM (≈ 34.9 µg/mL)
minimal inhibitory concentration (MIC) ([8]; E. faecalis (DSM 2570), 18–24 h, micro-aerobic): 25 µM (≈ 34.9 µg/mL)
minimal inhibitory concentration (MIC) ([9]; ATCC 8739): 100 µM (≈ 139 µg/mL)
minimal inhibitory concentration (MIC) ([9]; E. coli (ATCC 8739), 18–24 h, aerobic): 100 µM (≈ 139 µg/mL)
minimal inhibitory concentration (MIC) ([10]; ATCC 43504): 3.12 µM (≈ 4.35 µg/mL)
minimal inhibitory concentration (MIC) ([10]; H. pylori (ATCC 43504), 18–24 h, micro-aerobic): 3.12 µM (≈ 4.35 µg/mL)
minimal inhibitory concentration (MIC) ([11]; ATCC 6538): 3.12 µM (≈ 4.35 µg/mL)
minimal inhibitory concentration (MIC) ([11]; S. aureus (ATCC 6538), 18–24 h, aerobic): 3.12 µM (≈ 4.35 µg/mL)
minimal inhibitory concentration (MIC) ([12]; DSM 30054): >100 µM
minimal inhibitory concentration (MIC) ([12]; E. cloacae (DSM 30054), 18–24 h, aerobic): > 100 µM
minimal inhibitory concentration (MIC) ([13]; A. baumannii (DSM 30007), 18–24 h, aerobic): 12.5 µM (≈ 17.4 µg/mL)
minimal inhibitory concentration (MIC) ([13]; DSM 30007): 12.5 µM (≈ 17.4 µg/mL)
stability at different temperatures [14]: considerable stability up to 60 °C; also recorded: higher stability up to 60 °C
Pdi Values (polydispersity index) ([15]; DLS): 0.628
Z-Average ([15]; DLS, room temperature): 63.25 nm·days
Zeta Potential ([15]; zetasizer): −34.1 mV
hemolytic activity (in words) (human red blood cells): high hemolytic activity
estimated HC50 (concentration causing 50% of hemolysis) (human red blood cells; red cells of human, 1 h): 43.66 ± 1.01 µM
hemolysis at 100 µM (Hemolysis assay): 102 ± 6.18%
IC50 [16]: 14.8 ± 7.35 µM
IC50 [17]: 15.1 ± 8.51 µM
IC50 (lung cancer cells A549): 14.5 ± 1.44 µM
IC50 (skin cancer cells MNT-1): 15.2 ± 0.8 µM
IC50 (liver cancer cells HepG2): 31.6 ± 1.56 µM
IC50 [18]: 13 ± 1.99 µM
IC50 [19]: 22.4 ± 6.07 µM
IC50 [20]: 37.2 ± 2.88 µM
IC50 (human cancer cells): 18.1 ± 6.68 µM
